The target of the experiment is VMAT2 (human platelet homogenate) (Homo sapiens (Human), UniProt Q05940). In words: Human VMAT2 Ki, slightly modified competition binding procedure (Table 11).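 Further: competition binding with 90 min incubation at 25 °C, after which filter-retained radioligand was measured by scintillation counting.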 Particulars: 10 nM 3H-dihydrotetrabenazine.

Among the data in US11053242B2, “[9,10-dimethoxy-3-(2-methylpropyl)-1H,2H,3H,4H,6H,7H,11BH-pyrido-[2,1-a]isoquinolin-2-yl]methanol and compounds, compositions and methods relating thereto” (Neurocrine Biosciences, Inc., priority 2015, dated 2021) are Ki values, retold here.

Structures are written as SMILES.

VMAT2 (human platelet homogenate), sequence (Q05940 whole entry): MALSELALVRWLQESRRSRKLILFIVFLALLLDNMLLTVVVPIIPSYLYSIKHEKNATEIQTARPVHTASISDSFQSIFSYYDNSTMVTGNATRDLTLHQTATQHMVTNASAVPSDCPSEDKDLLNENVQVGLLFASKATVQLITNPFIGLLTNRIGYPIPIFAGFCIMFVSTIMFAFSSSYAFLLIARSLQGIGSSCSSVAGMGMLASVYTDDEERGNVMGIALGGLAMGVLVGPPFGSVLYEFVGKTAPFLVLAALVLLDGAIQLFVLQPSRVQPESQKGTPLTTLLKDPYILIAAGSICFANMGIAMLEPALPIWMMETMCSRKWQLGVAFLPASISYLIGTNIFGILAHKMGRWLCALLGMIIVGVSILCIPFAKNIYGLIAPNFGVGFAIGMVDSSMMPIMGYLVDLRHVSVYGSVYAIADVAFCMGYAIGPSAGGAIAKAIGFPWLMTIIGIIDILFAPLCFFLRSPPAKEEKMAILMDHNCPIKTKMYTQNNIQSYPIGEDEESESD
Method: Following incubation at 25° C. for 90 minutes, bound radioligand was collected by rapid filtration onto GF/B glass fiber filters using a Unifilter-96 Harvester (PerkinElmer). Filter plates were pre-treated with 0.1% polyethylenimine and allowed to dry overnight, and following harvesting the filter plates were washed with 800 d VMAT2 binding buffer. Bound radioligand was quantified by scintillation counting using a Topcount NXT (PerkinElmer).

For the molecule `COc1cc2c(cc1OC)[C@H]1C[C@@H](COC(=O)C3C(C)(C)C3(C)C)[C@H](CC(C)C)CN1CC2` [Compound 2-38, [(2R,3S,11bR)-9,10-dimethoxy-3-(2-methylpropyl)-1H,2H,3H,4H,6H,7H,11bH-pyrido[2,1-a]isoquinolin-2-yl]methyl 2,2,3,3-tetramethylcyclopropane-1-carboxylate], the Ki was in the range of 10 to 500 nM.
Take `COc1cc2c(cc1OC)[C@H]1C[C@@H](COC(=O)CCN3CCN(C)CC3)[C@H](CC(C)C)CN1CC2` [Compound 2-15, [(2R,3S,11bR)-9,10-dimethoxy-3-(2-methylpropyl)-1H,2H,3H,4H,6H,7H,11bH-pyrido[2,1-a]isoquinolin-2-yl]methyl 3-(4-methylpiperazin-1-yl)propanoate]: the Ki was less than 10 nM.
In turn, `COc1cc2c(cc1OC)[C@H]1C[C@@H](COC(=O)CS(=O)(=O)O)[C@H](CC(C)C)CN1CC2` [Compound 2-35, 2-{[(2R,3S,11bR)-9,10-dimethoxy-3-(2-methylpropyl)-1H,2H,3H,4H,6H,7H,11bH-pyrido[2,1-a]isoquinolin-2-yl]methoxy}-2-oxoethane-1-sulfonic acid] returned a Ki of more than 500 nM.
The molecule `COc1cc2c(cc1OC)[C@H]1C[C@@H](COC(=O)N3CC(C)NCC3C)[C@H](CC(C)C)CN1CC2` (stereo partly drawn) [Compound 6-14, [(2R,3S,11bR)-9,10-dimethoxy-3-(2-methylpropyl)-1H,2H,3H,4H,6H,7H,11bH-pyrido[2,1-a]isoquinolin-2-yl]methyl 2,5-dimethylpiperazine-1-carboxylate] showed an inhibition constant (Ki) of less than 10 nM.
`COc1cc2c(cc1OC)[C@H]1C[C@@H](COC[C@@H]3CCCN3)[C@H](CC(C)C)CN1CC2` [Compound 10-4, (2S)-2-({[(2R,3S,11bR)-9,10-dimethoxy-3-(2-methylpropyl)-1H,2H,3H,4H,6H,7H,11bH-pyrido[2,1-a]isoquinolin-2-yl]methoxy}methyl)pyrrolidine] came in with a Ki of less than 10 nM.
Regarding `COc1cc2c(cc1OC)[C@H]1C[C@@H](COCCC3CCNCC3)[C@H](CC(C)C)CN1CC2` [Compound 10-1, 4-(2-{[(2R,3S,11bR)-9,10-dimethoxy-3-(2-methylpropyl)-1H,2H,3H,4H,6H,7H,11bH-pyrido[2,1-a]isoquinolin-2-yl]methoxy}ethyl)piperidine], the inhibition constant Ki was less than 10 nM.
Molecule `COc1cc2c(cc1OC)[C@H]1C[C@@H](COCC(=O)c3ccc(F)cc3)[C@H](CC(C)C)CN1CC2` [Compound 9-3, 2-{[(2R,3S,11bR)-9,l0-dimethoxy-3-(2-methylpropyl)-1H,2H,3H,4H,6H,7H,11bH-pyrido[2,1-a]isoquinolin-2-yl]methoxy}-1-(4-fluorophenyl)ethan-1-one] registered an inhibition constant (Ki) of more than 500 nM.
`COc1cc2c(cc1OC)[C@H]1C[C@@H](COC(=O)CC(=O)O)[C@H](CC(C)C)CN1CC2` [Compound 3-2, 3-{[(2R,3S,11bR)-9,10-dimethoxy-3-(2-methylpropyl)-1H,2H,3H,4H,6H,7H,11bH-pyrido[2,1-a]isoquinolin-2-yl]methoxy}-3-oxopropanoic acid] returned an inhibition constant (Ki) of less than 10 nM.
Molecule `COc1cc2c(cc1OC)[C@H]1C[C@@H](COCC3CCNC3)[C@H](CC(C)C)CN1CC2` (stereo partly drawn) [Compound 10-6, 3-({[(2R,3S,11bR)-9,10-dimethoxy-3-(2-methylpropyl)-1H,2H,3H,4H,6H,7H,11bH-pyrido[2,1-a]isoquinolin-2-yl]methoxy}methyl)pyrrolidine] registered a Ki of less than 10 nM.
Turning to `COc1cc2c(cc1OC)[C@H]1C[C@@H](COC(=O)CCn3cnnn3)[C@H](CC(C)C)CN1CC2` [Compound 2-13, [(2R,3S,11bR)-9,10-dimethoxy-3-(2-methylpropyl)-1H,2H,3H,4H,6H,7H,11bH-pyrido[2,1-a]isoquinolin-2-yl]methyl 3-(1H-1,2,3,4-tetrazol-1-yl)propanoate], the Ki was less than 10 nM.
Consider `COc1cc2c(cc1OC)[C@H]1C[C@@H](COC(=O)c3ccc(CN)cc3)[C@H](CC(C)C)CN1CC2` [Compound 4-18, [(2R,3S,11bR)-9,10-dimethoxy-3-(2-methylpropyl)-1H,2H,3H,4H,6H,7H,11bH-pyrido[2,1-a]isoquinolin-2-yl]methyl 4-(aminomethyl)benzoate], for which the inhibition constant (Ki) lay within 10 to 500 nM.

By Ki is commonly meant the dissociation constant of the complex between target and ligand, obtained from inhibition or displacement. Read a low Ki as tighter binding.
